In ChEMBL document CHEMBL1141681, “Bradykinin B1 receptor antagonists: an alpha-hydroxy amide with an improved metabolism profile” (Bioorg Med Chem Lett, 2008):
pKi: −log10 of the molar value.

Assays:
[1] = target: T1, B1 bradykinin receptor (Homo sapiens, UniProt P46663); experiment: Displacement of [3H]des-arg10leu9kallidin from human bradykinin B1 receptor expressed in CHO cells by Wallac beta-plate scintillation counting; assay type: cell-based
T1 sequence (P46663 whole entry): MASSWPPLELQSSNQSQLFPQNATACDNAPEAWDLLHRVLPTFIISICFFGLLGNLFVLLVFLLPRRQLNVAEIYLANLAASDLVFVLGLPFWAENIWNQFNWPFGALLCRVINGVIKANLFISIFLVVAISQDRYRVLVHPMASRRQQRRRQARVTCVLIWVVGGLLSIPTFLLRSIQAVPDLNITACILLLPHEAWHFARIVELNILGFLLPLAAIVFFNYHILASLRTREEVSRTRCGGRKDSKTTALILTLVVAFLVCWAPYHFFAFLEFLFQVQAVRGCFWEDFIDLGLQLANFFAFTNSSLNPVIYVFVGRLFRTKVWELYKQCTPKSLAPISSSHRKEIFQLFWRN

[2] = Ratio of permeability from basolateral to apical side to apical to basolateral side in pig L-MDR1 cells overexpressing human MDR1 at 5 uM after 3 hrs by LC/MS/MS analysis; assay type: ADME, cell-based, Sus scrofa; details: l-mdr1, 3 h
[3] = system: MDR1 (human); experiment: (§1) Apparent permeability across pig L-MDR1 cells overexpressing human MDR1 at 5 uM after 3 hrs by LC/MS/MS analysis; assay type: ADME, cell-based, Sus scrofa; details: LLC-PK1
[4] = (§2) Half life in mongrel dog at 3 mg/kg, po and 1 mg/kg, iv; assay type: ADME, organism-based, Canis lupus familiaris; details: mongrel, in vivo
[5] = Clearance in mongrel dog at 3 mg/kg, po and 1 mg/kg, iv; assay type: ADME, organism-based, Canis lupus familiaris; details: in vivo
[6] = system: Canis familiaris; experiment: as §2; assay type: ADME, organism-based, Canis lupus familiaris; details: in vivo
[7] = Oral bioavailability in mongrel dog at 3 mg/kg; assay type: ADME, organism-based, Canis lupus familiaris; details: in vivo
[8] = Oral bioavailability in Sprague-Dawley rat at 10 mg/kg; assay type: ADME, organism-based; details: in vivo
[9] = Half life in Sprague-Dawley rat at 10 mg/kg, po and 2 mg/kg, iv; assay type: ADME, organism-based; details: in vivo
[10] = Clearance in Sprague-Dawley rat at 10 mg/kg, po and 2 mg/kg, iv; assay type: ADME, organism-based; details: in vivo
[11] = target: Rattus norvegicus; experiment: Ex vivo displacement of [35S]N-{2-[4-(4,5-dihydro-1H-imidazol-2-yl)phenyl]ethyl}-2-[(2R)-1-(2-naphthylsulfonyl)-3-oxo-1,2,3,4-tetrahydroquinoxalin-2-yl]acetamide from human bradykinin B1 receptor expressed in iv dosed Sprague-Dawley rat brain by liquid scintillation counting; assay type: functional, organism-based
[12] = Ratio of drug level in brain to plasma of african green monkey at 2 mg/kg, iv after 30 mins by LC/MS/MS analysis; assay type: ADME, organism-based; set-up: dose 2 mg/kg, route intravenous; details: chlorocebus aethiops, brain and plasma
[13] = as §1; assay type: ADME, cell-based, Sus scrofa; details: l-mdr1, 3 h, 5 µM, 3 h

Row | SMILES | pKi [1] | Ratio [2] | Papp at 3 h, 5 µM [3] [×10⁻⁶ cm/s] | half-life [4] [h] | clearance [5] [mL/min/kg] | Ratio ([2]; 3 h) | t1/2 [6] [h] | bioavailability [7] [%] | bioavailability [8] [%] | half-life [9] [h] | clearance [10] [mL/min/kg] | pKi [11] | Kp at 0.5 h [12] | Papp [13] [×10⁻⁶ cm/s]
1 | C[C@@H](NC(=O)C1(O)CC[S+]([O-])C1)c1ncc(-c2cc(Cl)cc(F)c2-c2nnn(C)n2)cc1F (stereo partly specified) | 8.80 | 14.3 | 24 | 3.1 | 2.3 | – | – | – | – | – | – | – | – | –
2 | C[C@@H](NC(=O)C1(O)CCS(=O)(=O)C1)c1ncc(-c2cc(Cl)cc(F)c2-c2nnn(C)n2)cc1F (stereo partly specified) | 9.16 | 29 | 22 | 9.9 | 0.5 | – | – | – | – | – | – | – | – | –
3 | C[C@@H](NC(=O)C1(O)CCOCC1)c1ncc(-c2cc(Cl)cc(F)c2-c2nnn(C)n2)cc1F | 9.02 | 8.2 | 24 | – | – | – | – | – | – | – | – | – | – | –
4 | C[C@@H](NC(=O)[C@@](C)(O)C(F)(F)F)c1ncc(-c2cc(Cl)cc(F)c2-c2noc(CO)n2)cc1F | 9.10 | – | – | – | – | – | – | – | – | – | – | – | – | –
5 | CC(NC(=O)C1(O)CCC(F)(F)C1)c1ncc(-c2cc(Cl)cc(F)c2-c2nnn(C)n2)cc1F (stereo in doubt; 11f) | 9.00 | – | 29 | – | 0.3 | 2.6 | 3 | – | – | – | – | – | – | –
6 | Cc1nc(-c2c(F)cc(Cl)cc2-c2cnc([C@@H](C)NC(=O)[C@@](C)(O)C(F)(F)F)c(F)c2)no1 | – | – | 27 | – | 0.5 | – | – | – | – | – | – | – | – | –

The next lines start with the values.

Row | pKi [1] | Ratio [2] | Papp at 3 h, 5 µM [3] [×10⁻⁶ cm/s] | half-life [4] [h] | clearance [5] [mL/min/kg] | Ratio ([2]; 3 h) | t1/2 [6] [h] | bioavailability [7] [%] | bioavailability [8] [%] | half-life [9] [h] | clearance [10] [mL/min/kg] | pKi [11] | Kp at 0.5 h [12] | Papp [13] [×10⁻⁶ cm/s] | SMILES
7 | 9.17 | 16 | 31 | 9.8 | 0.3 | – | – | – | – | – | – | – | – | – | C[C@@H](NC(=O)C1(O)CCC(=O)C1)c1ncc(-c2cc(Cl)cc(F)c2-c2nnn(C)n2)cc1F (stereo partly specified)
8 | 9.39 | 2 | 31 | 20.3 | 1 | – | – | 91 | 62 | 5.6 | 2.2 | 6.85 | 0.63 | – | C[C@@H](NC(=O)C1(O)CCC(F)(F)CC1)c1ncc(-c2cc(Cl)cc(F)c2-c2nnn(C)n2)cc1F
9 | 9.41 | 2.9 | 31 | 5.4 | 3.2 | – | – | – | – | – | – | – | – | – | C[C@@H](NC(=O)C1(O)CCSC1)c1ncc(-c2cc(Cl)cc(F)c2-c2nnn(C)n2)cc1F (stereo partly specified)
10 | 9.32 | 2.1 | 29 | 4.7 | 0.6 | – | – | – | 26 | 5.5 | 10 | 6.67 | – | – | C[C@@H](NC(=O)C1(O)CCCC1)c1ncc(-c2cc(Cl)cc(F)c2-c2nnn(C)n2)cc1F
11 | 9.17 | – | – | – | – | 1.9 | 19 | 85 | 96 | 4.1 | 5.2 | 6.92 | 0.55 | 32 | CC(NC(=O)C1(O)CCC(F)(F)C1)c1ncc(-c2cc(Cl)cc(F)c2-c2nnn(C)n2)cc1F (stereo in doubt; 11g)
